In the NIST ThermoML archive (doi:10.1016/j.jct.2006.05.004):

Key:
[1] = xn = mol fraction of the nth substance listed; details: 298.15 K, 101 kPa, Liquid
[2] = excess molar enthalpy (molar enthalpy of mixing); xn = mol fraction of the nth substance listed; details: 298.15 K, 101 kPa, Liquid

BrCCCBr [1,3-dibromopropane] + COC(C)=O
Details | excess molar enthalpy [kJ/mol] | mass density [kg/m3]
[1], x2 = 0.0821 | – | 1900.75
[1], x2 = 0.1456 | – | 1845.13
[1], x2 = 0.2131 | – | 1784.87
[1], x2 = 0.2862 | – | 1717.43
[1], x2 = 0.3503 | – | 1656.68
[1], x2 = 0.412 | – | 1596.53
[1], x2 = 0.4744 | – | 1533.88
[1], x2 = 0.535 | – | 1471.53
[1], x2 = 0.5898 | – | 1413.65
[1], x2 = 0.6476 | – | 1350.9
[1], x2 = 0.7027 | – | 1289.26
[1], x2 = 0.7565 | – | 1227.76
[1], x2 = 0.8086 | – | 1166.64
[1], x2 = 0.8558 | – | 1109.89
[1], x2 = 0.905 | – | 1048.62
[1], x2 = 0.9514 | – | 989.83
[2], x2 = 0.08 | 0.142 | –
[2], x2 = 0.1613 | 0.234 | –
[2], x2 = 0.2406 | 0.313 | –
[2], x2 = 0.3177 | 0.363 | –
[2], x2 = 0.3862 | 0.381 | –
[2], x2 = 0.4435 | 0.391 | –
[2], x2 = 0.4958 | 0.391 | –
[2], x2 = 0.5468 | 0.374 | –
[2], x2 = 0.5909 | 0.35 | –
[2], x2 = 0.6336 | 0.326 | –
[2], x2 = 0.6509 | 0.313 | –
[2], x2 = 0.6702 | 0.302 | –
[2], x2 = 0.7094 | 0.263 | –
[2], x2 = 0.7687 | 0.211 | –
[2], x2 = 0.8316 | 0.153 | –
[2], x2 = 0.8928 | 0.0957 | –
[2], x2 = 0.9501 | 0.0467 | –

BrCCCBr [1,3-dibromopropane] + COC=O
Details | excess molar enthalpy [kJ/mol] | mass density [kg/m3]
[1], x2 = 0.168 | – | 1858.59
[1], x2 = 0.2514 | – | 1796.92
[1], x2 = 0.3294 | – | 1735.49
[1], x2 = 0.4017 | – | 1674.57
[1], x2 = 0.4684 | – | 1614.73
[1], x2 = 0.5278 | – | 1558.51
[1], x2 = 0.591 | – | 1495.15
[1], x2 = 0.6438 | – | 1439.24
[1], x2 = 0.7014 | – | 1374.75
[1], x2 = 0.7953 | – | 1261.18
[1], x2 = 0.8394 | – | 1203.31
[1], x2 = 0.8849 | – | 1141.17
[1], x2 = 0.9258 | – | 1082.23
[2], x2 = 0.0766 | 0.304 | –
[2], x2 = 0.1698 | 0.57 | –
[2], x2 = 0.2646 | 0.744 | –
[2], x2 = 0.3543 | 0.853 | –
[2], x2 = 0.4503 | 0.915 | –
[2], x2 = 0.5147 | 0.925 | –
[2], x2 = 0.5752 | 0.904 | –
[2], x2 = 0.6318 | 0.862 | –
[2], x2 = 0.6814 | 0.803 | –
[2], x2 = 0.7238 | 0.736 | –
[2], x2 = 0.7605 | 0.667 | –
[2], x2 = 0.8277 | 0.513 | –
[2], x2 = 0.8783 | 0.388 | –
[2], x2 = 0.9299 | 0.248 | –

BrCCCCBr [1,4-dibromobutane] + CCC(=O)OC
Details | excess molar enthalpy [kJ/mol] | mass density [kg/m3]
[1], x2 = 0.0733 | – | 1763.63
[1], x2 = 0.1392 | – | 1712.4
[1], x2 = 0.2065 | – | 1658.81
[1], x2 = 0.2725 | – | 1604.96
[1], x2 = 0.3378 | – | 1550.31
[1], x2 = 0.3974 | – | 1499.32
[1], x2 = 0.4596 | – | 1444.8
[1], x2 = 0.5225 | – | 1388.41
[1], x2 = 0.638 | – | 1281.23
[1], x2 = 0.6944 | – | 1227.08
[1], x2 = 0.7466 | – | 1175.87
[1], x2 = 0.7998 | – | 1122.53
[1], x2 = 0.8489 | – | 1072.14
[1], x2 = 0.8998 | – | 1018.87
[1], x2 = 0.9505 | – | 964.61
[2], x2 = 0.074 | 0.0916 | –
[2], x2 = 0.1513 | 0.153 | –
[2], x2 = 0.2294 | 0.192 | –
[2], x2 = 0.305 | 0.207 | –
[2], x2 = 0.3744 | 0.207 | –
[2], x2 = 0.4375 | 0.196 | –
[2], x2 = 0.4948 | 0.179 | –
[2], x2 = 0.546 | 0.158 | –
[2], x2 = 0.5911 | 0.137 | –
[2], x2 = 0.6302 | 0.115 | –
[2], x2 = 0.6539 | 0.103 | –
[2], x2 = 0.665 | 0.102 | –
[2], x2 = 0.6965 | 0.0757 | –
[2], x2 = 0.712 | 0.067 | –
[2], x2 = 0.7721 | 0.0351 | –
[2], x2 = 0.8331 | 0.0178 | –
[2], x2 = 0.8921 | 0.0095 | –
[2], x2 = 0.9477 | 0.004 | –

BrCCCCBr [1,4-dibromobutane] + CCCC(=O)OC
Details | excess molar enthalpy [kJ/mol] | mass density [kg/m3]
[1], x2 = 0.121 | – | 1710.83
[1], x2 = 0.1809 | – | 1656.55
[1], x2 = 0.2384 | – | 1604.18
[1], x2 = 0.2953 | – | 1552.31
[1], x2 = 0.3601 | – | 1492.93
[1], x2 = 0.4182 | – | 1439.44
[1], x2 = 0.4848 | – | 1377.96
[1], x2 = 0.5382 | – | 1328.46
[1], x2 = 0.5989 | – | 1272
[1], x2 = 0.653 | – | 1221.36
[1], x2 = 0.7699 | – | 1111.48
[1], x2 = 0.8252 | – | 1059.19
[1], x2 = 0.8804 | – | 1006.8
[2], x2 = 0.0662 | 0.0466 | –
[2], x2 = 0.1525 | 0.0794 | –
[2], x2 = 0.2456 | 0.0972 | –
[2], x2 = 0.3392 | 0.0973 | –
[2], x2 = 0.4222 | 0.0795 | –
[2], x2 = 0.4708 | 0.0651 | –
[2], x2 = 0.5515 | 0.0311 | –
[2], x2 = 0.6276 | 0.0026 | –
[2], x2 = 0.6882 | -0.0153 | –
[2], x2 = 0.7845 | -0.0226 | –
[2], x2 = 0.8702 | -0.0189 | –
[2], x2 = 0.9455 | -0.0107 | –
